Data set [1] in a line: Drug level treated with 1-O-[(guanosin-5'-yl)thiophosphyl]-2-S-[(guanosin-5'-yl)dithiophosphyl]-ethane assessed as snake venom phosphodiesterase-mediated compound formation at 50 uM after 15 mins by RP-HPLC analysis. Format: ADME. Conditions: serpentes, 0.25 h.
Data set [2] in a line: Retention time of compound by RP-HPLC analysis. Format: physicochemical.
A short description of data set [3]: Stability of the compound assessed as snake venom phosphodiesterase-mediated initial rate of hydrolysis per microgram of protein at 50 uM after 10 mins by RP-HPLC analysis. Format: ADME. Conditions: serpentes.
Data set [4] has as its target T1, Bis(5'-adenosyl)-triphosphatase (Homo sapiens, UniProt P49789). Put plainly: Stability of the compound assessed as human Fhit expressed in Escherichia coli BL21-mediated compound hydrolysis rate per microgram protein at 50 uM after 5 to 120 mins by RP-HPLC analysis. The data set is classed as ADME.
Data set [5] has as its system snake venom phosphodiesterase. Put plainly: Stability of the compound assessed as snake venom phosphodiesterase-mediated compound hydrolysis at 50 uM after 10 mins by RP-HPLC analysis. The note with it: serpentes, read-out: Drug degradation. The data set is classed as ADME.
Data set [6] has as its system snake venom phosphodiesterase. Nature of the data set: Stability of the compound assessed as snake venom phosphodiesterase-mediated compound hydrolysis at 200 uM after 1 hr by RP-HPLC analysis. Format: ADME. Conditions: serpentes, read-out: Drug degradation.
The target of data set [7] is T1, Bis(5'-adenosyl)-triphosphatase. Put plainly: Stability of compound assessed as human Fhit expressed in Escherichia coli BL21-mediated compound initial rate of hydrolysis per microgram of protein at 50 to 200 uM after 5 to 120 mins by RP-HPLC analysis. The data set is classed as ADME.
Data set [8] in a line: Stability of the compound assessed as snake venom phosphodiesterase-mediated initial rate of hydrolysis per microgram of protein at 200 uM after 1 hr by RP-HPLC analysis. Format: ADME. Conditions: serpentes.
Data set [9] relates to snake venom phosphodiesterase. Nature of the data set: Stability of compound assessed as snake venom phosphodiesterase-mediated compound hydrolysis at 50 uM by RP-HPLC analysis. Format: ADME. Conditions: serpentes, read-out: Drug degradation.
The nature of data set [10]: Drug level treated with (R,S)-P1,P3-di(adenosin-5'-yl)P1,P3- bis-thio-triphosphate assessed as snake venom phosphodiesterase-mediated compound formation at 50 uM after 30 mins by RP-HPLC analysis. The data set is classed as ADME. The note with it: serpentes, 0.5 h.
Data set [11] is described as follows: Stability of the compound assessed as snake venom phosphodiesterase-mediated initial rate of hydrolysis per microgram of protein at 50 uM by RP-HPLC analysis. Format: ADME. The note with it: serpentes.
Data set [12] in a line: Drug level treated with (S,S)-P1,P3-di(adenosin-5'-yl)P1,P3- bis-thio-triphosphate assessed as snake venom phosphodiesterase-mediated compound formation at 50 uM after 2 hrs by RP-HPLC analysis. The data set is classed as ADME. Conditions: serpentes.
The nature of data set [13]: Stability of the compound assessed as snake venom phosphodiesterase-mediated initial rate of hydrolysis per microgram of protein at 50 uM after 2 hrs by RP-HPLC analysis. Format: ADME. Conditions: serpentes.
Data set [14] concerns snake venom phosphodiesterase. Put plainly: Stability of the compound assessed as snake venom phosphodiesterase-mediated compound hydrolysis at 50 uM after 2 hrs by RP-HPLC analysis. The data set is classed as ADME. Conditions: serpentes, read-out: Drug degradation.
Data set [15] can be described thus: Drug level treated with (R,R)-P1,P3-di(adenosin-5'-yl)P1,P3-bis-thio-triphosphate assessed as snake venom phosphodiesterase-mediated compound formation at 50 uM after 10 mins by RP-HPLC analysis. The data set is classed as ADME. The note with it: serpentes.
Data set [16] can be described thus: Stability of the compound assessed as snake venom phosphodiesterase-mediated initial rate of hydrolysis per microgram of protein at 50 uM after 30 mins by RP-HPLC analysis. Format: ADME. Conditions: serpentes, 0.5 h.
For data set [17], the system named is snake venom phosphodiesterase. Nature of the data set: Stability of the compound assessed as snake venom phosphodiesterase-mediated compound hydrolysis at 50 uM after 30 mins by RP-HPLC analysis. The data set is classed as ADME. Conditions: serpentes, read-out: Drug degradation.
Data set [18] in a line: Stability of the compound assessed as snake venom phosphodiesterase-mediated initial rate of hydrolysis per microgram of protein at 50 uM after 1 hr by RP-HPLC analysis. Conditions: serpentes. The data set is classed as ADME.
The subject of data set [19] is snake venom phosphodiesterase. Nature of the data set: Stability of the compound assessed as snake venom phosphodiesterase-mediated compound hydrolysis at 50 uM after 1 hr by RP-HPLC analysis. The data set is classed as ADME. The note with it: serpentes, read-out: Drug degradation.
Data set [20] is described as follows: Stability of the compound assessed as snake venom phosphodiesterase-mediated initial rate of hydrolysis per microgram of protein at 50 uM after 15 mins by RP-HPLC analysis. The data set is classed as ADME. The note with it: serpentes, 0.25 h.
Data set [21] has as its system snake venom phosphodiesterase. Nature of the data set: (§1) Stability of the compound assessed as snake venom phosphodiesterase-mediated compound hydrolysis at 50 uM after 15 mins by RP-HPLC analysis. Format: ADME. The note with it: serpentes, snake venom phosphodiesterase; read-out: Drug degradation.
The nature of data set [22]: as §1. Format: ADME. The note with it: serpentes, 0.25 h, 50 µM.

The structures appear in SMILES notation.

T1 sequence (P49789 whole entry): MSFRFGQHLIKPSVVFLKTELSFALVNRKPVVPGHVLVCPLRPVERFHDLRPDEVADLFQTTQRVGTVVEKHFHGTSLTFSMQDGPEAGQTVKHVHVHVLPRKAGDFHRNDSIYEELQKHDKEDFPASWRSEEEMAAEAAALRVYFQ

Take `Nc1nc2c(ncn2[C@@H]2O[C@H](COP(O)(O)=S)[C@@H](O)[C@H]2O)c(=O)[nH]1`: the Drug metabolism entry in data set [1] is listed as “Metabolite_Detected”. In data set [2], this compound displayed a Retention_time of 11.1 min.

Turning to `Nc1ncnc2c1ncn2[C@@H]1O[C@H](CO[P@@](=O)(S)OP(=O)(O)O[P@](=O)(S)OC[C@H]2O[C@@H](n3cnc4c(N)ncnc43)[C@H](O)[C@@H]2O)[C@@H](O)[C@H]1O`, the Drug degradation turned out to be 0.1349 nmol/min in [3] and 5.8 pmol/min in [4]. Also, in data set [5], the metabolised at 10 min, 50 µM is 88%.

On to `NC(=O)c1ncn([C@@H]2O[C@H](CO[P@](=O)(S)OP(=O)(O)O[P@@](=O)(S)OC[C@H]3O[C@@H](n4cnc(C(N)=O)n4)[C@H](O)[C@@H]3O)[C@@H](O)[C@H]2O)n1`, for which the metabolised at 1 h, 200 µM in data set [6] came out at 10%. In addition, the Stability result in data set [7] is “Stable”. The Drug degradation in [8] is 0.0023 nmol/min.

Turning to `NC(=O)c1ncn([C@@H]2O[C@H](CO[P@@](=O)(S)OP(=O)(O)O)[C@@H](O)[C@H]2O)n1`, the Retention_time in [2] is given as 11.8 min.

Turning to `Nc1ncnc2c1ncn2[C@@H]1O[C@H](CO[P@](=O)(S)OP(=O)(O)O)[C@@H](O)[C@H]1O`, the metabolised at 50 µM in data set [9] is 10%. The Drug metabolism result in data set [10] and in [12] was “Metabolite_Detected” each time. The Drug degradation in data set [11] was found to be 1.1 ×10⁻³ nmol/min. In addition, in [2], the Retention_time is given as 16.8 min.

For the compound `NC(=O)c1ncn([C@@H]2O[C@H](CO[P@](=O)(S)OP(=O)(O)O)[C@@H](O)[C@H]2O)n1`, the Retention_time in [2] is on record as 10.9 min.

On to `Nc1ncnc2c1ncn2[C@@H]1O[C@H](CO[P@](=O)(S)OP(=O)(O)O[P@@](=O)(S)OC[C@H]2O[C@@H](n3cnc4c(N)ncnc43)[C@H](O)[C@@H]2O)[C@@H](O)[C@H]1O`, for which the Drug degradation worked out at 0.0012 nmol/min in data set [13] and 5.7 pmol/min in [4]. Further, the metabolised at 2 h, 50 µM in data set [14] was 52%.

In the case of `Nc1ncnc2c1ncn2[C@@H]1O[C@H](CO[P@@](=O)(S)OP(=O)(O)O)[C@@H](O)[C@H]1O`, the Drug metabolism result in [15] was “Metabolite_Detected”. In addition, in data set [9], the metabolised at 50 µM is 10%. Further, in data set [11], the Drug degradation came out at 2.9 ×10⁻³ nmol/min. This compound also displayed a Retention_time in data set [2] of 18.9 min.

As for `Nc1ncnc2c1ncn2[C@@H]1O[C@H](CO[P@](=O)(S)OP(=O)(O)O[P@](=O)(S)OC[C@H]2O[C@@H](n3cnc4c(N)ncnc43)[C@H](O)[C@@H]2O)[C@@H](O)[C@H]1O`, the Drug degradation stood at 0.0368 nmol/min in [16] and 27.8 pmol/min in data set [4]. In addition, the metabolised at 0.5 h, 50 µM in [17] was found to be 88%.

The compound `Nc1nc2c(ncn2[C@@H]2O[C@H](CO[P@@](=O)(S)OP(=O)(O)O)[C@@H](O)[C@H]2O)c(=O)[nH]1` registered a Retention_time in [2] of 16.9 min.

Turning to `NC(=O)c1ncn([C@@H]2O[C@H](CO[P@@](=O)(S)OP(=O)(O)O[P@](=O)(S)OC[C@H]3O[C@@H](n4cnc(C(N)=O)n4)[C@H](O)[C@@H]3O)[C@@H](O)[C@H]2O)n1`, the metabolised at 1 h, 200 µM in data set [6] was determined as 80%. For the same compound, the Stability entry in data set [7] is reported as “Stable”. In addition, the Drug degradation in data set [8] is given as 0.0538 nmol/min.

As to `Nc1nc2c(ncn2[C@@H]2O[C@H](CO[P@@](=O)(S)OP(=O)(O)O[P@](=O)(S)OC[C@H]3O[C@@H](n4cnc5c(=O)[nH]c(N)nc54)[C@H](O)[C@@H]3O)[C@@H](O)[C@H]2O)c(=O)[nH]1`, the Drug degradation is recorded as 0.1212 nmol/min in data set [18] and 0.7 pmol/min in [4]. Further, the metabolised at 1 h, 50 µM in data set [19] worked out at 95%.

`Nc1nc2c(ncn2[C@@H]2O[C@H](CO[P@](=O)(S)OP(=O)(O)O)[C@@H](O)[C@H]2O)c(=O)[nH]1` showed a Retention_time in data set [2] of 14.9 min.

In data set [2], `NC(=O)c1ncn([C@@H]2O[C@H](COP(=O)(O)S)[C@@H](O)[C@H]2O)n1` (some centres undefined) had a Retention_time of 10.6 min.

In the case of `NC(=O)c1ncn([C@@H]2O[C@H](CO[P@](=O)(S)OP(=O)(O)O[P@](=O)(S)OC[C@H]3O[C@@H](n4cnc(C(N)=O)n4)[C@H](O)[C@@H]3O)[C@@H](O)[C@H]2O)n1`, the metabolised at 1 h, 200 µM in [6] stood at 41%. For the same compound, the Stability result in data set [7] is listed as “Stable”. In [8], the Drug degradation is reported as 0.0253 nmol/min.

On to `Nc1ncnc2c1ncn2[C@@H]1O[C@H](COP(=O)(O)OP(=O)(O)OP(=O)(O)OC[C@H]2O[C@@H](n3cnc4c(N)ncnc43)[C@H](O)[C@@H]2O)[C@@H](O)[C@H]1O`, for which the Drug degradation in data set [4] is given as 9810 pmol/min.

In turn, `Nc1ncnc2c1ncn2[C@@H]1O[C@H](COP(O)(O)=S)[C@@H](O)[C@H]1O` registered a Retention_time in data set [2] of 13.8 min.

As for `Nc1nc2c(ncn2[C@@H]2O[C@H](COP(=O)(S)OP(=O)(O)OP(=O)(S)OC[C@H]3O[C@@H](n4cnc5c(=O)[nH]c(N)nc54)[C@H](O)[C@@H]3O)[C@@H](O)[C@H]2O)c(=O)[nH]1` (mixture of isomers), the values for the Drug degradation in data set [18] and in data set [4] were 0.0275 nmol/min and 5.9 pmol/min, respectively. Also, the metabolised at 1 h, 50 µM in [19] is 50%.

Consider `Nc1nc2c(ncn2[C@@H]2O[C@H](COP(=O)(S)OCCSP(=O)(S)OC[C@H]3O[C@@H](n4cnc5c(=O)[nH]c(N)nc54)[C@H](O)[C@@H]3O)[C@@H](O)[C@H]2O)c(=O)[nH]1` (stereo in doubt; 9A), for which the Drug degradation turned out to be 0.6944 nmol/min in [20] and 3.9 pmol/min in [4]. Besides, the metabolised at 0.25 h, 50 µM in data set [21] came to 70%.

In the case of `Nc1nc2c(ncn2[C@@H]2O[C@H](COP(=O)(S)OCCSP(=O)(S)OC[C@H]3O[C@@H](n4cnc5c(=O)[nH]c(N)nc54)[C@H](O)[C@@H]3O)[C@@H](O)[C@H]2O)c(=O)[nH]1` (stereo in doubt; 9B), the Drug degradation in data set [20] is 0.5539 nmol/min; in [22] it was 56%; in data set [4], 2 pmol/min.

`Nc1ncnc2c1ncn2[C@@H]1O[C@H](COP(=O)(O)OP(=O)(O)O)[C@@H](O)[C@H]1O` [ADENOSINE DIPHOSPHATE]: the Stability result in data set [11] is given as “Stable”.
